# According to PMC6272317, “Design, Synthesis and Antitubercular Activity of Certain Nicotinic Acid Hydrazides” (Molecules, 2015):
# Like-named read-outs stand apart in the source and are kept apart here.
# Assays:
# [1] = test system: M. tuberculosis (RCMB 010126); assay: microplate Alamar blue assay (MABA), in vitro antimycobacterial activity; assay type: cell-based, Mycobacterium tuberculosis; details: for Mean of Inhibition %: test concentration not stated; for MIC: visual MIC
# [2] = test system: HepG-2 liver cancer cell line; design: method as in PMID 25499988; details: previous study ref 40, cited from earlier work; for IC50: HepG2, 72 h; for cytotoxicity (in words): HepG2
# [3] = test system: HT-29 colon cancer cell line; assay: SRB cytotoxicity assay, HT-29; details: for cytotoxicity (in words): HT-29; for IC50: Homo sapiens, HT-29, 72 h
# [4] = test system: MCF-7 breast cancer cell line; design: method as in PMID 25499988; details: previous study ref 40, cited from earlier work; for IC50: MCF-7, 72 h; for cytotoxicity (in words): MCF-7
# [5] = test system: A-549 human lung cancer cell line; design: method as in PMID 25499988; details: previous study ref 40, cited from earlier work; for IC50: A549, 72 h; for cytotoxicity (in words): A549
# [6] = test system: PC-3 prostate cancer cell line; assay: SRB cytotoxicity assay, PC-3; details: for IC50: 72 h; for cytotoxicity (in words): PC-3
# [7] = M. tuberculosis RCMB 010126, MABA
# [8] = Mycobacterium tuberculosis, RCMB010126, M. tuberculosis RCMB 010126, MABA, read-out: MIC
Structure (SMILES),"Mean of Inhibition % [1, 7]","MIC [1, 8] [µg/mL]",melting point [°C],also measured
"Cc1nc(-c2ccc(Br)cc2)ccc1C(=O)NN=Cc1ccc(Cl)cc1 [Compound 7c, 6-(4-Bromophenyl)-N'-(4-chlorobenzylidene)-2-methylnicotinohydrazide]",NA (No Activity (>100 µg/mL)),> 100,265 to 267,–
Cc1nc(-c2ccc(F)cc2)ccc1C(=O)N/N=C1\C(=O)Nc2ccc(Cl)cc21 [Compound 8b],52.63 ± 0.58%,12.5,–,"IC50 [2]: > 200 µM; cytotoxicity (in words) [2]: devoid of apparent cytotoxicity; MIC [1, 7]: 12.5 µg/mL; cytotoxicity (in words) [3]: devoid of apparent cytotoxicity; IC50 [3]: > 200 µM; IC50 [4]: > 200 µM; cytotoxicity (in words) [4]: devoid of apparent cytotoxicity; IC50 [5]: > 200 µM; cytotoxicity (in words) [5]: devoid of apparent cytotoxicity; IC50 [6]: > 200 µM; cytotoxicity (in words) [6]: devoid of apparent cytotoxicity"
"Cc1nc(-c2ccc(Br)cc2)ccc1C(=O)NN=Cc1ccc(F)cc1 [Compound 7b, 6-(4-Bromophenyl)-N'-(4-fluorobenzylidene)-2-methylnicotinohydrazide]",NA (No Activity (>100 µg/mL)),> 100,252 to 254,–
"COc1ccc(C=NNC(=O)c2ccc(-c3ccc(Br)cc3)nc2C)cc1 [Compound 7e, 6-(4-Bromophenyl)-N'-(4-methoxybenzylidene)-2-methylnicotinohydrazide]",NA (No Activity (>100 µg/mL)),> 100,251 to 253,–
"NC(=O)c1cnccn1 [Pyrazinamid, pyrazinamide, reference compound]",93.25 ± 0.63%,3.21,–,–
"Cc1nc(-c2ccc(Br)cc2)ccc1C(=O)NN [Compound 4e, 6-(4-Bromophenyl)-2-methylnicotinohydrazide]",20.63 ± 0.63%,100,213 to 215,"MIC [1, 7]: 50 µg/mL"
Cc1nc(-c2ccccc2)ccc1C(=O)NN [Compound 4a],42.52 ± 0.63%,25,–,–
"NNC(=O)c1ccncc1 [Isoniazide, Isoniazid, reference compound]",–,0.75,–,–
Cc1nc(-c2ccc(F)cc2)ccc1C(=O)N/N=C1\C(=O)Nc2ccc(Br)cc21 [Compound 8c],77.42 ± 0.93%,6.25,–,IC50 [2]: > 200 µM; cytotoxicity (in words) [2]: devoid of apparent cytotoxicity; cytotoxicity (in words) [3]: devoid of apparent cytotoxicity; IC50 [3]: > 200 µM; IC50 [4]: > 200 µM; cytotoxicity (in words) [4]: devoid of apparent cytotoxicity; IC50 [5]: > 200 µM; cytotoxicity (in words) [5]: devoid of apparent cytotoxicity; IC50 [6]: > 200 µM; cytotoxicity (in words) [6]: devoid of apparent cytotoxicity
Cc1nc(-c2cccs2)ccc1C(=O)NN [Compound 4i],22.63 ± 0.20%,50,–,–
"COc1cccc2c1C(=O)c1c(O)c3c(c(O)c1C2=O)C[C@@](O)(C(=O)CO)C[C@@H]3O[C@H]1C[C@H](N)[C@H](O)[C@H](C)O1 [Doxorubicin, reference compound]",–,–,–,IC50 [2]: 6.9 ± 2.05 µM; IC50 [3]: 7.3 ± 1.11 µM; IC50 [4]: 6.1 ± 1.95 µM; IC50 [5]: 7.6 ± 1.37 µM; IC50 [6]: 6.5 ± 1.07 µM
"Cc1nc(-c2ccc(Br)cc2)ccc1C(=O)NN=Cc1ccc2ccccc2c1 [Compound 7f, 6-(4-Bromophenyl)-2-methyl-N'-(naphthalen-2-ylmethylene)nicotinohydrazide]",14.32 ± 0.58%,100,273 to 275,–
"COc1ccc(-c2ccc(C(=O)NN)c(C)n2)cc1 [Compound 4f, 6-(4-Methoxyphenyl)-2-methylnicotinohydrazide]",42.63 ± 0.16%,25,–,–
Cc1nc(-c2ccc(F)cc2)ccc1C(=O)N/N=C1\C(=O)Nc2ccccc21 [Compound 8a],31.44 ± 0.58%,25,–,IC50 [2]: > 200 µM; IC50 [3]: > 200 µM; IC50 [4]: > 200 µM; IC50 [5]: > 200 µM; IC50 [6]: > 200 µM
"Cc1nc(-c2ccc(Br)cc2)ccc1C(=O)NN=Cc1ccc(Cl)cc1Cl [Compound 7d, 6-(4-Bromophenyl)-N'-(2,4-dichlorobenzylidene)-2-methylnicotinohydrazide]",13.57 ± 0.72%,100,269 to 271,–
"Cc1nc(-c2ccc(Br)cc2)ccc1C(=O)NN=Cc1ccccc1 [Compound 7a, N′-Benzylidene-6-(4-bromophenyl)-2-methylnicotinohydrazide]",NA (No Activity (>100 µg/mL)),> 100,270 to 272,–
"COc1cc(-c2ccc(C(=O)NN)c(C)n2)cc(OC)c1OC [Compound 4h, 2-Methyl-6-(3,4,5-trimethoxyphenyl)nicotinohydrazide]",18.32 ± 0.72%,50,–,–
"COc1ccc(-c2ccc(C(=O)NN)c(C)n2)cc1OC [Compound 4g, 6-(3,4-Dimethoxyphenyl)-2-methylnicotinohydrazide]",22.63 ± 0.16%,50,204 to 205,–
"Cc1nc(-c2ccc(F)cc2)ccc1C(=O)NN [Compound 4c, 6-(4-fluorophenyl)-2-methylnicotinohydrazide]",NA (No Activity (>100 µg/mL)),> 100,–,"antimycobacterial activity (in words) ([1]; M. tuberculosis, MABA): complete loss of activity"
Cc1nc(-c2ccc(Cl)cc2)ccc1C(=O)NN [Compound 4d],12.45 ± 0.58%,50,–,"MIC [1, 7]: 100 µg/mL"
Cc1ccc(-c2ccc(C(=O)NN)c(C)n2)cc1 [Compound 4b],36.33 ± 0.58%,25,–,–
